Assay [1] relates to TGF-β signaling (TGF-β pSMAD, MPC-11). Nature of the assay: AlphaScreen SureFire SMAD3 (p-Ser423/425) assay, inhibition of TGF-β signaling. Type of assay: cell-based. The following applies: Mus musculus, MPC-11, inhibition of TGF-β signaling, p-SMAD3 readout. (Bead proximity is the source of the signal in Alpha formats.)
For assay [2], the system named is GDF8 signaling (GDF pSMAD, MPC11). Nature of the assay: AlphaScreen SureFire SMAD3 (p-Ser423/425) assay, inhibition of GDF8 signaling. The following applies: Mus musculus, MPC-11, inhibition of GDF8 signaling, p-SMAD3 readout. Type of assay: cell-based.

SMILES strings stand for the structures.

Broadly, the IC50 is the point on the concentration scale where inhibition reaches its midpoint. Higher therefore signals a need for much substance.

With `Cc1cccc(-c2ncn(C)c2-c2ccc3cn[nH]c3c2)c1` [Compound 42, 6-(1-Methyl-4-(m-tolyl)-1H-imidazol-5-yl)-1H-indazole], the IC50 turned out to be 150 nM in assay [1] and 30 nM in assay [2].

In the case of `Cc1cc(-c2ncsc2-c2ccc3cn[nH]c3c2)ccc1F` [Compound 159, 4-(4-fluoro-3-methylphenyl)-5-(1H-indazol-6-yl)thiazole], the IC50 in assay [1] stood at 171 nM; in assay [2] it was 36.7 nM.

Turning to `CCc1nc(-c2cc(C)cc(F)c2)c(-c2ccc3nccnc3c2)[nH]1` [Compound 147, 6-(2-Ethyl-4-(3-fluoro-5-methylphenyl)-1H-imidazol-5-yl)quinoxaline], the IC50 in assay [1] worked out at 2210 nM; in assay [2], 550 nM.

For the compound `Cc1cc(-c2ncn(C)c2-c2ccc3ncn(C)c3c2)ccc1F` [Compound 8, 6-(4-(4-Fluoro-3-methylphenyl)-1-methyl-1H-imidazol-5-yl)-1-methyl-1H-benzo[d]imidazole], the concentration for half-maximal inhibition (IC50) in assay [1] was 210 nM; in assay [2] it was 90 nM.

Take `Fc1ccc(-c2nc[nH]c2-c2ccc3ncccc3c2)cc1` [Compound 38, 6-(4-(4-Fluorophenyl)-1H-imidazol-5-yl)quinoline]: the half-inhibitory concentration (IC50) stood at 2550 nM in assay [1] and 930 nM in assay [2].

In the case of `Cc1cc(-c2nc(C)n(C)c2-c2ccc3[nH]ncc3c2)ccc1F` [Compound 52, 5-(4-(4-Fluoro-3-methylphenyl)-1,2-dimethyl-1H-imidazol-5-yl)-1H-indazole], the IC50 in assay [1] came to 910 nM; in assay [2], 210 nM.

Consider `Fc1ccc(-c2nc(C(F)(F)F)[nH]c2-c2ccc3ncnn3c2)cc1` [Compound 151, 6-(4-(4-Fluorophenyl)-2-(trifluoromethyl)-1H-imidazol-5-yl)-[1,2,4]triazolo[1,5-a]pyridine], for which the 50% inhibitory concentration (IC50) in assay [1] came to 1400 nM; in assay [2], 590 nM.

On to `Cc1nc(-c2ccc(F)cc2)c(-c2ccc3nccnc3c2)[nH]1` [Compound 82, 6-(4-(4-Fluorophenyl)-2-methyl-1H-imidazol-5-yl)quinoxaline], for which the figures for the IC50 in assay [1] and in assay [2] were 3270 nM and 480 nM, respectively.

`Cc1nc(-c2ccc(F)c(F)c2)c(-c2ccc3nccn3c2)[nH]1` [Compound 87, 6-(4-(3,4-Difluorophenyl)-2-methyl-1H-imidazol-5-yl)imidazo[1,2-a]pyridine]: the IC50 in assay [1] stood at 3460 nM; in assay [2] it was 330 nM.

For the compound `Nc1nc(-c2cccc(F)c2)c(-c2ccc3nccn3c2)s1` [Compound 187, 4-(3-fluorophenyl)-5-(imidazo[1,2-a]pyridin-6-yl)thiazol-2-amine], the IC50 in assay [1] was 3100 nM; in assay [2] it was 481 nM.

In the case of `Cc1nc(-c2cc(F)c(F)cc2F)c(-c2ccc3[nH]ncc3c2)[nH]1` [Compound 97, 5-(2-Methyl-4-(2,4,5-trifluorophenyl)-1H-imidazol-5-yl)-1H-indazole], the values for the IC50 in assay [1] and in assay [2] were 540 nM and 100 nM, respectively.

With `Nc1nc(-c2cccc(F)c2)c(-c2ccc3ncsc3c2)s1` [Compound 178, 5-(benzo[d]thiazol-6-yl)-4-(3-fluorophenyl)thiazol-2-amine], the IC50 in assay [1] worked out at 1100 nM; in assay [2], 252 nM.

With `CCc1nc(-c2cc(F)cc(Cl)c2)c(-c2ccc3ncsc3c2)[nH]1` [Compound 140, 6-(4-(3-Chloro-5-fluorophenyl)-2-ethyl-1H-imidazol-5-yl)benzo[d]thiazole], the IC50 in assay [1] was found to be 2220 nM; in assay [2], 620 nM.

For the compound `Nc1nc(-c2cccc(Cl)c2)c(-c2ccc3nccnc3c2)s1` [Compound 169, 4-(3-chlorophenyl)-5-(quinoxalin-6-yl)thiazol-2-amine], the values for the concentration for half-maximal inhibition (IC50) in assay [1] and in assay [2] were 236 nM and 95.1 nM, respectively.

With `Cc1cc(-c2nc(C)n(C)c2-c2ccc3ncn(C)c3c2)ccc1F` [Compound 54, 6-(4-(4-Fluoro-3-methylphenyl)-1,2-dimethyl-1H-imidazol-5-yl)-1-methyl-1H-benzo[d]imidazole], the IC50 is 3100 nM in assay [1] and 410 nM in assay [2].

With `Cc1nc(-c2ccc(F)c(F)c2)c(-c2ccc3ncsc3c2)[nH]1` [Compound 86, 6-(4-(3,4-Difluorophenyl)-2-methyl-1H-imidazol-5-yl)benzo[d]thiazole], the figures for the IC50 in assay [1] and in assay [2] were 1280 nM and 220 nM, respectively.

For the compound `CCc1nc(-c2cccc(Cl)c2)c(-c2ccc3ncsc3c2)[nH]1` [Compound 126, 6-(4-(3-Chlorophenyl)-2-ethyl-1H-imidazol-5-yl)benzo[d]thiazole], the IC50 in assay [1] is 340 nM; in assay [2], 90 nM.

As to `Cc1cccc(-c2nc(C)n(C)c2-c2ccc3cn[nH]c3c2)c1` [Compound 57, 6-(1,2-Dimethyl-4-(m-tolyl)-1H-imidazol-5-yl)-1H-indazole], the figures for the concentration for half-maximal inhibition (IC50) in assay [1] and in assay [2] were 9210 nM and 710 nM, respectively.

`Cn1cnc(-c2ccc(F)cc2)c1-c1ccc2[nH]ncc2c1` [Compound 48, −(4-(4-Fluorophenyl)-1-methyl-1H-imidazol-5-yl)-1H-indazole]: the IC50 in assay [1] is 250 nM; in assay [2] it was 60 nM.

For the compound `CCc1nc(-c2ccc(F)cc2)c(-c2ccc3ncsc3c2)[nH]1` [Compound 122, 6-(2-Ethyl-4-(4-fluorophenyl)-1H-imidazol-5-yl)benzo[d]thiazole], the IC50 in assay [1] was found to be 4530 nM; in assay [2], 580 nM.

For `Cc1nc(-c2cc(F)c(F)c(F)c2)c(-c2ccc3nccn3c2)[nH]1` [Compound 94, 6-(2-Methyl-4-(3,4,5-trifluorophenyl)-1H-imidazol-5-yl)imidazo[1,2-a]pyridine], the IC50 in assay [1] stood at 2910 nM; in assay [2], 580 nM.

Consider `Clc1cccc(-c2nc[nH]c2-c2ccc3cn[nH]c3c2)c1` [Compound 23, 6-(4-(3-Chlorophenyl)-1H-imidazol-5-yl)-1H-indazole], for which the IC50 was 30 nM in assay [1] and 10 nM in assay [2].

Turning to `COc1ccc(-c2ncn(C)c2-c2ccc3[nH]ncc3c2)cc1` [Compound 69, 5-(4-(4-Methoxyphenyl)-1-methyl-1H-imidazol-5-yl)-1H-indazole], the figures for the IC50 in assay [1] and in assay [2] were 1770 nM and 140 nM, respectively.

As to `CCc1nc(-c2ccc(F)c(C)c2)c(-c2ccc3[nH]ncc3c2)[nH]1` [Compound 106, 5-(2-Ethyl-4-(4-fluoro-3-methylphenyl)-1H-imidazol-5-yl)-1H-indazole], the IC50 is 920 nM in assay [1] and 150 nM in assay [2].

On to `Fc1cccc(-c2nc[nH]c2-c2ccc3[nH]ncc3c2)c1` [Compound 27, 5-(4-(3-Fluorophenyl)-1H-imidazol-5-yl)-1H-indazole], for which the IC50 in assay [1] was determined as 120 nM; in assay [2], 90 nM.

Consider `Cn1cnc2ccc(-c3[nH]cnc3-c3cccc(Cl)c3)cc21` [Compound 24, 6-(4-(3-Chlorophenyl)-1H-imidazol-5-yl)-1-methyl-1H-benzo[d]imidazole], for which the IC50 in assay [1] and in assay [2] was 10 nM in each case.

For `Fc1cccc(-c2nc[nH]c2-c2ccc3ncccc3c2)c1` [Compound 40, 6-(4-(3-Fluorophenyl)-1H-imidazol-5-yl)quinoline], the IC50 in assay [1] is 1220 nM; in assay [2] it was 460 nM.

Take `Clc1ccc(-c2nc[nH]c2-c2ccc3[nH]ncc3c2)cc1` [Compound 6, 5-(4-(4-Chlorophenyl)-1H-imidazol-5-yl)-1H-indazole]: the figures for the IC50 in assay [1] and in assay [2] were 620 nM and 160 nM, respectively.

With `Cc1nc(-c2cc(F)c(F)cc2F)c(-c2ccc3ncccc3c2)[nH]1` [Compound 100, 6-(2-Methyl-4-(2,4,5-trifluorophenyl)-1H-imidazol-5-yl)quinoline], the IC50 in assay [1] is 1370 nM; in assay [2], 170 nM.

Regarding `Cc1cc(-c2ncsc2-c2ccc3nccn3c2)ccc1F` [Compound 167, 4-(4-fluoro-3-methylphenyl)-5-(imidazo[1,2-a]pyridin-6-yl)thiazole], the 50% inhibitory concentration (IC50) in assay [1] came to 215 nM; in assay [2], 78 nM.

As to `Cc1nc(-c2cc(F)c(F)c(F)c2)c(-c2ccc3ncnn3c2)[nH]1` [Compound 92, 6-(2-Methyl-4-(3,4,5-trifluorophenyl)-1H-imidazol-5-yl)-[1,2,4]triazolo[1,5-a]pyridine], the IC50 was found to be 2270 nM in assay [1] and 470 nM in assay [2].

Consider `CCc1nc(-c2cc(C)cc(F)c2)c(-c2ccc3ncnn3c2)[nH]1` [Compound 144, 6-(2-Ethyl-4-(3-fluoro-5-methylphenyl)-1H-imidazol-5-yl)-[1,2,4]triazolo[1,5-a]pyridine], for which the 50% inhibitory concentration (IC50) in assay [1] came to 1530 nM; in assay [2], 310 nM.

Regarding `Cc1nc(-c2cccc(Cl)c2)c(-c2ccc3[nH]ncc3c2)[nH]1` [Compound 101, 5-(4-(3-Chlorophenyl)-2-methyl-1H-imidazol-5-yl)-1H-indazole], the IC50 came to 500 nM in assay [1] and 140 nM in assay [2].

Regarding `Fc1ccc(-c2nc[nH]c2-c2ccc3nccn3c2)cc1F` [Compound 35, 6-(4-(3,4-Difluorophenyl)-1H-imidazol-5-yl)imidazo[1,2-a]pyridine], the IC50 came out at 640 nM in assay [1] and 300 nM in assay [2].

As for `Cc1nc(-c2ccc(F)c(F)c2)c(-c2ccc3ncccc3c2)[nH]1` [Compound 88, 6-(4-(3,4-Difluorophenyl)-2-methyl-1H-imidazol-5-yl)quinoline], the IC50 is 11500 nM in assay [1] and 1020 nM in assay [2].

Take `Cc1nc(-c2ccc(F)cc2)c(-c2ccc3[nH]ncc3c2)[nH]1` [Compound 77, 5-(4-(4-Fluorophenyl)-2-methyl-1H-imidazol-5-yl)-1H-indazole]: the values for the IC50 in assay [1] and in assay [2] were 1430 nM and 220 nM, respectively.

On to `Cn1cnc2ccc(-c3[nH]cnc3-c3ccc(F)cc3)cc21` [Compound 12, 6-(4-(4-Fluorophenyl)-1H-imidazol-5-yl)-1-methyl-1H-benzo[d]imidazole], for which the values for the IC50 in assay [1] and in assay [2] were 270 nM and 130 nM, respectively.

Take `CCc1nc(-c2ccc(F)c(C)c2)c(-c2ccc3nccn3c2)[nH]1` [Compound 110, 6-(2-Ethyl-4-(4-fluoro-3-methylphenyl)-1H-imidazol-5-yl)imidazo[1,2-a]pyridine]: the IC50 in assay [1] came out at 1050 nM; in assay [2] it was 250 nM.
